Measurements published in US20260199273A1, “Compounds for the Treatment of Neuromuscular Disorders” (NMD PHARMA A/S, priority 2022, published 2026).

Target: T1, CIC-1 ion channel (Rattus norvegicus, UniProt P35524)
T1 construct: from tissue; host or cells: whole soleus muscle of 12-14 week old Wistar rats
T1 sequence (P35524 1-994): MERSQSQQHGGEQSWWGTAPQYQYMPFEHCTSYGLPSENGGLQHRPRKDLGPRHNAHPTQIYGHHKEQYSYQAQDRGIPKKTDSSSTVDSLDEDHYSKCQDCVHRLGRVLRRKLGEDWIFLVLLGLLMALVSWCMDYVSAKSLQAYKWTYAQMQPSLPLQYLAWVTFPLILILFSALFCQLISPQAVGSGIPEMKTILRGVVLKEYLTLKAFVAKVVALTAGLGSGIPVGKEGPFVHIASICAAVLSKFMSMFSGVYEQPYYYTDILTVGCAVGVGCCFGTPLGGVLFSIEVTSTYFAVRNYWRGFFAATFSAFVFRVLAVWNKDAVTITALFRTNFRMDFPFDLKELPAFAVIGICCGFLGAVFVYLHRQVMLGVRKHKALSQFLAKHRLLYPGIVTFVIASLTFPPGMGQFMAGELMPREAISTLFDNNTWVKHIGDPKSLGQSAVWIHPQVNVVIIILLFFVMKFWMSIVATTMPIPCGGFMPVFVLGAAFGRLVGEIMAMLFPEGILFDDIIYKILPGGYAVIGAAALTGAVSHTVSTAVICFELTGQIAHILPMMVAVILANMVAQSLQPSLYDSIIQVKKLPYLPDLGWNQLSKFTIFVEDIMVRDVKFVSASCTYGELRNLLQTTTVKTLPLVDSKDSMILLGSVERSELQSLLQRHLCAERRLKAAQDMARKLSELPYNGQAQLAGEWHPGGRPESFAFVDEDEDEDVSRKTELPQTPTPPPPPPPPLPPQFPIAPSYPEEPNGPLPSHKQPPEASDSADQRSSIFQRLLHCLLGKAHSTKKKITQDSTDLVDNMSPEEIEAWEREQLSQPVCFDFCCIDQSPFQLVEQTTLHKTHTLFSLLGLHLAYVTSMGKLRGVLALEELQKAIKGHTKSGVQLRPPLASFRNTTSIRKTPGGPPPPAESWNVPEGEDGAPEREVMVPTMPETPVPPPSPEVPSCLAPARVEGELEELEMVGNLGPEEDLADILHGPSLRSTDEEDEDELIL
Experiment: Electrophysiological measurement of compound inhibition of CIC-1 in rat muscle (Gm in soleus fibres, three micro-electrodes)
Format: cell-based
Conditions: Gm in individual fibres of whole rat soleus muscles, approx. 30° C., four increasing compound concentrations; read-out: Potency Range (EC50, inhibition of CIC-1 ion channel)
Experimental: Apparent CIC-1 affinity was reported by the concentration of compound at which 50% of the compound's full inhibition of CIC-1 was observed (EC50) (see also WO2019/115777).
Experimentally, Gm was measured in individual fibres of whole rat soleus muscles using a three micro-electrodes technique described in this example and in full detail elsewhere (Riisager et al., Determination of cable parameters in skeletal muscle fibres during repetitive firing of action potentials. Journal of Physiology, 2014, 592, 4417-4429). Briefly, intact rat soleus muscles were dissected out from 12-14 week old Wistar rats and placed in an experimental chamber that was perfused with a standard Krebs Ringer solution containing 122 mM NaCl, 25 mM NaHCO3, 2.8 mM KCl, 1.2 mM KH2PO4, 1.2 mM MgSO4, 1.3 mM CaCl2, 5.0 mM D-glucose. During experiments, the solution was kept at approx. 30° C. and continuously equilibrated with a mixture of 95% O2 and 5% CO2, pH ~7.4. The experimental chamber was placed in Nikon upright microscope that was used to visualize individual muscle fibres and the three electrodes (glass pipettes filled with 2 M potassium citrate). For Gm measurements, the electrodes were inserted into the same fibre with known inter-electrode distances of 0.35-0.5 mm (V1-V2, X1) and 1.1-1.5 mm (V1-V3, X3). The membrane potential of the impaled muscle fibre was recorded by all electrodes. Two of the electrodes were furthermore used to inject 50 ms current pulses of −30 nA. […] The steady state voltage deflection at each distance was divided by the magnitude of current injected (−30 nA) and the resulting transfer resistances were plotted against inter-electrode distance and the data was fitted to a mono-exponential function from which Gm could be calculated using linear cable theory.
To establish a dose response relationship, Gm was first determined in 10 muscle fibres in the absence of compound and then at four increasing compound concentrations with Gm determinations in 5-10 fibres at each concentration. The average Gm values at each concentration were plotted against compound concentration and the data was fitted to sigmoidal function to obtain an EC5o value.

Row | Compound | EC50
1 | CCc1c(Cl)cc2c(c1C(=O)O)CCC2 [Compound A-13, 6-Chloro-5-ethyl-2,3-dihydro-1H-indene-4-carboxylic acid] | 10000 to 20000 nM
2 | COc1c(F)cc2c(c1C(=O)O)CCCC2 [Compound A-18, 3-Fluoro-2-methoxy-5,6,7,8-tetrahydronaphthalene-1-carboxylic acid] | 200 to 2000 nM
3 | COc1c(Cl)cc2c(c1C(=O)O)CCC2 [Compound A-6, 6-Chloro-5-methoxy-2,3-dihydro-1H-indene-4-carboxylic acid] | 200 to 2000 nM
4 | CC1(C)CCc2cc(Cl)cc(C(=O)O)c2O1 [Compound A-53, 6-Chloro-2,2-dimethyl-3,4-dihydro-2H-1-benzopyran-8-carboxylic acid] | 200 to 2000 nM
5 | O=C(O)c1c(F)c(C2CC2)cc2c1CCCC2 [Compound A-54, 3-Cyclopropyl-2-fluoro-5,6,7,8-tetrahydronaphthalene-1-carboxylic acid] | 10000 to 20000 nM
6 | Cc1cc2c(c(C(=O)O)c1C)CCCC2 [Compound A-5, 2,3-dimethyl-5,6,7,8-tetrahydronaphthalene-1-carboxylic acid] | 10000 to 20000 nM
7 | COc1c(Cl)cc2c(c1C(=O)O)OCCC2 [Compound A-69, 6-Chloro-7-methoxy-3,4-dihydro-2H-1-benzopyran-8-carboxylic acid] | 200 to 2000 nM
8 | O=C(O)c1c(Cl)c(F)cc2c1OCCC2 [Compound A-37, 7-Chloro-6-fluoro-3,4-dihydro-2H-1-benzopyran-8-carboxylic acid] | 2000 to 10000 nM
9 | Cc1cc2c(c(C(=O)O)c1C)CCC2 [Compound A-4, 5,6-dimethyl-2,3-dihydro-1H-indene-4-carboxylic acid] | 10000 to 20000 nM
10 | O=C(O)c1cc(Cl)c(F)c2c1CCCC2 [Compound A-17, 3-Chloro-4-fluoro-5,6,7,8-tetrahydronaphthalene-1-carboxylic acid] | 10000 to 20000 nM

More lines, now with the values ahead:

Row | EC50 | Compound
11 | 2000 to 10000 nM | O=C(O)c1c(F)c(Cl)cc2c1CCC2 [Compound A-63, 6-Chloro-5-fluoro-2,3-dihydro-1H-indene-4-carboxylic acid]
12 | 2000 to 10000 nM | Cc1c(Cl)cc2c(c1C(=O)O)CCCC2 [Compound A-9, 3-Chloro-2-methyl-5,6,7,8-tetrahydronaphthalene-1-carboxylic acid]
13 | 200 to 2000 nM | O=C(O)c1c(F)c(Cl)cc2c1N(Cc1ccsc1)CCC2 [Compound A-70, 6-Chloro-7-fluoro-1-[(3-thienyl)methyl]-1,2,3,4-tetrahydro-8-quinolinecarboxylic acid]
14 | 200 to 2000 nM | O=C(O)c1c(F)c(Cl)cc2c1N(Cc1ccc(F)cc1)CCC2 [Compound A-72, 6-Chloro-7-fluoro-1-[(p-fluorophenyl)methyl]-1,2,3,4-tetrahydro-8-quinolinecarboxylic acid]
15 | 200 to 2000 nM | CSc1c(Cl)cc2c(c1C(=O)O)CCCC2 [Compound A-32, 3-Chloro-2-(methylsulfanyl)-5,6,7,8-tetrahydronaphthalene-1-carboxylic acid]
16 | 2000 to 10000 nM | O=C(O)c1c(F)c(F)cc2c1CCCC2 [Compound A-44, 2,3-Difluoro-5,6,7,8-tetrahydronaphthalene-1-carboxylic acid]
17 | 2000 to 10000 nM | O=C(O)c1c(Cl)c(F)cc2c1CCCC2 [Compound A-27, 2-chloro-3-fluoro-5,6,7,8-tetrahydronaphthalene-1-carboxylic acid]
18 | 200 to 2000 nM | CC1(C)CCc2cc(Cl)c(F)c(C(=O)O)c2O1 [Compound A-61, 6-Chloro-7-fluoro-2,2-dimethyl-3,4-dihydro-2H-1-benzopyran-8-carboxylic acid]

Test system: isolated rat soleus nerve-muscle preparations
Experiment: Measurement of force in an in vitro model: recovery of nerve-stimulated contractile force after tubocurarine
Conditions: 40 min, 10 μM of test compound, after 40 mins of compound exposure, tubocurarine (115 nM) for 90 minutes, read-out: Point increase (%): percentage increase of initial force that was restored
Experimental: In one aspect, the invention relates to a method for recovery of force in muscles with neuromuscular dysfunction, said method comprising administering a compound or a composition as defined herein to a subject in need thereof. The term “recovery of force in muscles with neuromuscular dysfunction” as used herein refers to the ability of a compound to recover contractile force in nerve-stimulated healthy rat muscle after exposure to submaximal concentration (115 nM) of tubocurarine for 90 minutes.
Recovery of force is quantified as the percentage of the force prior to tubocurarine that is recovered after addition of the compound. In one embodiment, said recovery of force is >5%, such as >10%, such as >15%, such as >20%, such as >25%, such as >30%, such as >35%.
The current disclosure relates to compounds that inhibit CIC-1 ion channels and increase muscle excitability and thereby improve muscle function in clinical conditions where muscle activation is failing. Such conditions result in loss of contractile function of skeletal muscle, weakness and excessive fatigue. In this series of experiments the compounds were tested for their ability to restore contractile function of isolated rat muscle when the neuromuscular transmission had been compromised akin to neuromuscular disorders.
Experimentally, soleus muscles from 4-5 week old rats were isolated with the motor nerve remaining attached. The nerve-muscle preparations were mounted in experimental setups that enabled electrical stimulation of the motor nerve. Stimulation of the motor nerve led to activation of the muscle fibres and ensuing force production that was recorded. The nerve-muscle preparations were also in these experiments incubated in the standard Krebs Ringer (see example 15) and the solution was heated to 30° C. and continuously equilibrated with a mixture of 95% O2 and 5% CO2, pH ~7.4.
After mounting the nerve-muscle preparation in the experimental setup, the contractile function of the muscle was initially assessed under the control conditions. Sub-maximal concentration of tubocurarine (115 nM), an acetylcholine receptor antagonist, was then added to the experimental bath to impose partial inhibition of the ability of the motor nerve to activate the muscle fibres. The experimental condition mimics the failing neuromuscular transmission in a range of neuromuscular disorders. After addition of tubocurarine the contractile force declined over the next 90 minutes to 10-50% of the control force. The test compound was then added to obtain the required compound concentration in the bath and the contractile force recovered was measured. To quantify the ability of the compound to restore force the percentage of the initial force that was restored was determined after 40 mins of compound exposure and the point increase is reported in Tables 3 to 7.

Row | Compound | activation at 10 µM
19 | O=C(O)c1c(F)c(Cl)cc2c1CCC2 [Compound A-63, 6-Chloro-5-fluoro-2,3-dihydro-1H-indene-4-carboxylic acid] | 28%
20 | Cc1c(Cl)cc2c(c1C(=O)O)CCCC2 [Compound A-9, 3-Chloro-2-methyl-5,6,7,8-tetrahydronaphthalene-1-carboxylic acid] | 14%
21 | COc1c(F)cc2c(c1C(=O)O)CCCC2 [Compound A-18, 3-Fluoro-2-methoxy-5,6,7,8-tetrahydronaphthalene-1-carboxylic acid] | 46%
22 | COc1c(Cl)cc2c(c1C(=O)O)CCC2 [Compound A-6, 6-Chloro-5-methoxy-2,3-dihydro-1H-indene-4-carboxylic acid] | 42%
23 | O=C(O)c1c(F)c(Cl)cc2c1N(Cc1ccsc1)CCC2 [Compound A-70, 6-Chloro-7-fluoro-1-[(3-thienyl)methyl]-1,2,3,4-tetrahydro-8-quinolinecarboxylic acid] | 25%
24 | O=C(O)c1c(F)c(Cl)cc2c1N(Cc1ccc(F)cc1)CCC2 [Compound A-72, 6-Chloro-7-fluoro-1-[(p-fluorophenyl)methyl]-1,2,3,4-tetrahydro-8-quinolinecarboxylic acid] | 20%
25 | CSc1c(Cl)cc2c(c1C(=O)O)CCCC2 [Compound A-32, 3-Chloro-2-(methylsulfanyl)-5,6,7,8-tetrahydronaphthalene-1-carboxylic acid] | 24%
26 | CC1(C)CCc2cc(Cl)cc(C(=O)O)c2O1 [Compound A-53, 6-Chloro-2,2-dimethyl-3,4-dihydro-2H-1-benzopyran-8-carboxylic acid] | 43%
27 | COc1c(Cl)cc2c(c1C(=O)O)OCCC2 [Compound A-69, 6-Chloro-7-methoxy-3,4-dihydro-2H-1-benzopyran-8-carboxylic acid] | 55%
28 | O=C(O)c1c(Cl)c(F)cc2c1CCCC2 [Compound A-27, 2-chloro-3-fluoro-5,6,7,8-tetrahydronaphthalene-1-carboxylic acid] | 38%
29 | CC1(C)CCc2cc(Cl)c(F)c(C(=O)O)c2O1 [Compound A-61, 6-Chloro-7-fluoro-2,2-dimethyl-3,4-dihydro-2H-1-benzopyran-8-carboxylic acid] | 63%

Same assay, conditions: 40 min, 50 μM of test compound, after 40 mins of compound exposure, tubocurarine (115 nM) for 90 minutes, read-out: Point increase (%): percentage increase of initial force that was restored

Row | Compound | activation at 50 µM
30 | CCc1c(Cl)cc2c(c1C(=O)O)CCC2 [Compound A-13, 6-Chloro-5-ethyl-2,3-dihydro-1H-indene-4-carboxylic acid] | 26%
31 | O=C(O)c1c(F)c(C2CC2)cc2c1CCCC2 [Compound A-54, 3-Cyclopropyl-2-fluoro-5,6,7,8-tetrahydronaphthalene-1-carboxylic acid] | 47%
32 | Cc1cc2c(c(C(=O)O)c1C)CCCC2 [Compound A-5, 2,3-dimethyl-5,6,7,8-tetrahydronaphthalene-1-carboxylic acid] | 43%
33 | O=C(O)c1c(F)c(F)cc2c1CCCC2 [Compound A-44, 2,3-Difluoro-5,6,7,8-tetrahydronaphthalene-1-carboxylic acid] | 59%
34 | O=C(O)c1c(Cl)c(F)cc2c1OCCC2 [Compound A-37, 7-Chloro-6-fluoro-3,4-dihydro-2H-1-benzopyran-8-carboxylic acid] | 48%
35 | Cc1cc2c(c(C(=O)O)c1C)CCC2 [Compound A-4, 5,6-dimethyl-2,3-dihydro-1H-indene-4-carboxylic acid] | 30%
36 | O=C(O)c1cc(Cl)c(F)c2c1CCCC2 [Compound A-17, 3-Chloro-4-fluoro-5,6,7,8-tetrahydronaphthalene-1-carboxylic acid] | 41%
